# Key:
# CD133+ glioma stem cells = experiment: Caspase-Glo 3/7 assay, relative caspase 3/7 activities; type: cell-based, human
# Procedure: FIG. 2 is a series of graphs illustrating that γ-secretase inhibitors enhance radiation-induced cell death in glioma stem cells. (A) T4302 CD 133+ cells were pre-treated with DAPT or L685,458 for 4 hours and irradiated at 3 Gy. Percentage of dead cells was determined by trypan blue exclusion assay at 48 hours after radiation exposure. (B) T4302 CD 133+ cells were treated with GSIs ±radiation as indicated. Cells were then plated at 3000 cells per well in 96-well plates. Relative caspase 3/7 activities were determined by normalizing caspase activities to the corresponding cell titers. (C) T4302 CD 133+ cells were treated as described in FIG. 2A. 24 or 48 hours after radiation exposure, cells were labeled with FITC-conjugated Annexin V staining kit (BD Sciences) according to manufacturer's instructions and analyzed by flow cytometry. […] Relative caspase 3/7 activities were determined at 72 hours after radiation. (E) T4302 CD133+ cells were pre-treated with DAPT at indicated concentrations for 4 hours and irradiated at 3 Gy. Relative caspase activities were determined at 48 or 72 hours after radiation. *: p<0.01 by Student's t-test; #: p<0.01 by one-way ANOVA.
# The caspase activities at 48 or 72 hours after radiation were measured using the Caspase-Glo 3/7 assay (Promega) according to the manufacturer's instructions. The caspase activities were normalized to the corresponding cell titers to obtain the relative caspase 3/7 activities.
# Mcl-1 = experiment: Immunoblotting of Mcl-1; type: cell-based, human; conditions: 2 μM DAPT, T4302 CD133+ cells
# Procedure: FIG. 5 is a set of immunoblots and a graph illustrating that the Notch pathway regulates radioresistance of glioma stem cells via the Akt pathway and Mcl-1. T4302 CD 133+ cells were infected with control lentivirus or lentivirus directing expression of NICD2. Cells were pre-treated with or without 2 μM DPAT for 4 hours and exposed to 3-Gy radiation. Irradiated cells were collected at 24 or 48 hours after radiation, and sham-irradiated cells were collected at 48 hours after radiation. (A, C, D) Protein levels of phospho-Akt (S473), total Akt, PTEN, Bcl-2, Bcl-xL, Mcl-1, phospho-p53 (S15), total p53 and PUMA were assessed by immunoblotting. Actin was blotted as the loading control. (B) Control cells or NICD2-expressing cells were pre-treated with 10 μM PI3K inhibitor, LY294002, or 50 μM Akt inhibitor III (SH-6), for 4 hours prior to radiation exposure. Relative caspase 3/7 activities were determined at 48 hours after radiation exposure. #: p<0.001, by one-way ANOVA.
# Antibodies, DNA constructs, lentiviruses and other reagents. The antibodies purchased from Cell Signaling Technology (Danvers, M A) include phosphor-S296-Chk1 (2349), total Chk1 (2345), phosphor-T68-Chk2 (2661), total Chk2 (2662), phospho-5473 Akt (#9271), total Akt (#9272), PTEN (#9556), phospho-S15-p53 (#9286), Bcl-2 (#2870), Bcl-xL (#2764), Mcl-1 (#4572), Puma (#4976). […]
compound,measurement,setting,value
"CC(NC(=O)Cc1cc(F)cc(F)c1)C(=O)NC(C(=O)OC(C)(C)C)c1ccccc1 [DAPT, N-[N-(3,5-Difluorophenacetyl-L-alanyl)]-S-phenylglycine t-Butyl Ester]",radiosensitizing effect,"CD133+ glioma stem cells; 200 nM DAPT, 3 Gy",still being effective
same,radiation-induced cell death,"CD133+ glioma stem cells; 2 μM DAPT added 24 hours after radiation, T4105 or T4302 CD133+ cells",increased radiation-induced cell death
same,radiation-induced cell death (caspase 3/7),"CD133+ glioma stem cells; 2 μM, radiation 1, 2 or 3 Gy, 72 hours",enhanced radiation-induced cell death
same,"radiosensitizing effects, dependence on concentration","CD133+ glioma stem cells; 3 Gy, 48 or 72 hours after radiation",concentration-dependent effect
same,radiation-induced cell death of cells infected with control lentivirus,"CD133+ glioma stem cells; irradiated, T4302 CD133+",sensitive to DAPT
same,levels of Mcl-1,Mcl-1,decreased
same,levels of Mcl-1 proteins of a smaller size,Mcl-1,increased

# Source: patent publication US20110059114A1, “Compositions and Methods for the Treatment of Radioresistant Glioma Stem Cells” (DUKE UNIVERSITY, priority 2009, published 2011)
